# From ChEMBL document CHEMBL5154928, “Structure-Aided Design, Synthesis, and Biological Evaluation of Potent and Selective Non-Nucleoside Inhibitors Targeting Protein Arginine Methyltransferase 5” (J Med Chem, 2022)
# Active and inactive are the calls of the source. No cut-off for these calls is given here.
# How the values were obtained:
# [1] = target: T1, Protein arginine N-methyltransferase 5 (Homo sapiens, UniProt O14744); assay: Displacement of [3H]-SAM from PRMT5 (unknown origin) using peptide substrate preincubated for 15 mins followed by substrate addition for 60 mins by radioactive biochemical assay
# T1 sequence (O14744 whole entry): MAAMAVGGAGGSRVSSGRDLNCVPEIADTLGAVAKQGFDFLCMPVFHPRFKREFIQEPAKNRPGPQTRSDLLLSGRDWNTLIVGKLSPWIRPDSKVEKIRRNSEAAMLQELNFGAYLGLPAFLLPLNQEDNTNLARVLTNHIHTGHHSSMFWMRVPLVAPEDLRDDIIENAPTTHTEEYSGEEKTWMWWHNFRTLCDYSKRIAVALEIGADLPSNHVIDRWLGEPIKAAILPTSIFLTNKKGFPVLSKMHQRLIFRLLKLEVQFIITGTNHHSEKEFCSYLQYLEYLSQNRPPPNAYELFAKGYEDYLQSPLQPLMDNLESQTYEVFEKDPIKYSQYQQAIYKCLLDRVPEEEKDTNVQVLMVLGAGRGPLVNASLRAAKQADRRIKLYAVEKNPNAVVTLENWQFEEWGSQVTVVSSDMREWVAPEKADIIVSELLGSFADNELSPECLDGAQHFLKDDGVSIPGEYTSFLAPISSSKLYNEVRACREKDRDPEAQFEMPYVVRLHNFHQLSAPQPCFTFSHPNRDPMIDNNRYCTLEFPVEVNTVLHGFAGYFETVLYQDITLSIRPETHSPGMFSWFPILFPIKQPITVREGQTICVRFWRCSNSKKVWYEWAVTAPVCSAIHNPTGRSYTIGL
# [2] = Metabolic stability in human liver microsomes assessed as half life incubated for 10 mins measured up to 60 mins in presence of NADPH by LC-MS/MS analysis; type: ADME, Microsome
# [3] = tested on: A-375; assay: Antiproliferation activity against human A-375 cells assessed as cell growth inhibition incubated for 5 days by CCK-8 assay; settings: A-375, 120 h
# [4] = tested on: MV4-11; assay: Antiproliferation activity against human MV4-11 cells assessed as cell growth inhibition incubated for 5 days by CCK-8 assay; type: functional, cell-based; settings: dose <= 10.0 µM, time 5.0 day, DDE = dose-dependent effect
# [5] = target: T1, Protein arginine N-methyltransferase 5; assay: Inhibition of PRMT5 in human A-375 cells assessed as decrease in […] levels measured after 48 hrs by Western blot analysis; type: cell-based; settings: dose 0.5-8 µM, DDE = dose-dependent effect
# [6] = tested on: Mus musculus; assay: In vivo inhibition of PRMT5 in human A-375 cells xenografted in BALB/c mouse assessed as reduction in H3R8me2s levels in tumor tissue at 75 mg/kg, po qd for 19 days measured after 3 weeks by Western blot analysis; type: functional, organism-based; settings: time 19.0 day
# [7] = target: T1, Protein arginine N-methyltransferase 5; assay: Competitive inhibition of PRMT5 (unknown origin) at 0.001 to 100000 nM using histone H4 (1 to 21 residues) as substrate incubated for 120 mins in presence of different concentrations of SAM by AlphaLISA assay; settings: dose 0.001-100000 nM
# [8] = tested on: Mus musculus; assay: In vivo inhibition of PRMT5 in human A-375 cells xenografted in BALB/c mouse assessed as reduction in sDMA levels in tumor tissue at 75 mg/kg, po qd for 19 days measured after 3 weeks by Western blot analysis; type: functional, organism-based; settings: time 19.0 day
# [9] = tested on: MDA-MB-231; assay: Antiproliferation activity against human MDA-MB-231 cells assessed as cell growth inhibition incubated for 5 days by CCK-8 assay; type: functional, cell-based; settings: dose <= 10.0 µM, time 5.0 day, DDE = dose-dependent effect
# [10] = tested on: SNU-423; assay: Antiproliferation activity against human SNU-423 cells assessed as cell growth inhibition incubated for 5 days by CCK-8 assay; type: functional, cell-based; settings: dose <= 10.0 µM, time 5.0 day, DDE = dose-dependent effect
# [11] = tested on: A-375; assay: Induction of apoptosis in human A-375 cells incubated for 48 hrs by Annexin-V FITC/PI staining based flow cytometry analysis; type: functional, cell-based; settings: dose 0.5-4 µM, DDE = dose-dependent effect
# [12] = target: T1, Protein arginine N-methyltransferase 5; assay: Competitive inhibition of PRMT5 (unknown origin) in presence of MTA
# [13] = tested on: MOLM-13; assay: Antiproliferation activity against human MOLM-13 cells assessed as cell growth inhibition incubated for 5 days by CCK-8 assay; type: functional, cell-based; settings: dose <= 10.0 µM, time 5.0 day, DDE = dose-dependent effect
# [14] = tested on: Mus musculus; assay: In vivo inhibition of PRMT5 in human A-375 cells xenografted in BALB/c mouse assessed as reduction in H4R3me2s levels in tumor tissue at 75 mg/kg, po qd for 19 days measured after 3 weeks by Western blot analysis; type: functional, organism-based; settings: time 19.0 day
# [15] = tested on: MDA-MB-453; assay: Antiproliferation activity against human MDA-MB-453 cells assessed as cell growth inhibition incubated for 5 days by CCK-8 assay; type: functional, cell-based; settings: dose <= 10.0 µM, time 5.0 day, DDE = dose-dependent effect
# [16] = tested on: CHL-1; assay: Antiproliferation activity against human CHL-1 cells assessed as cell growth inhibition incubated for 5 days by CCK-8 assay; type: functional, cell-based; settings: dose <= 10.0 µM, time 5.0 day, DDE = dose-dependent effect
# [17] = tested on: SNU-449; assay: Antiproliferation activity against human SNU-449 cells assessed as cell growth inhibition incubated for 5 days by CCK-8 assay; type: functional, cell-based; settings: dose <= 10.0 µM, time 5.0 day, DDE = dose-dependent effect
# [18] = target: T1, Protein arginine N-methyltransferase 5; assay: Displacement of [3H]-SAM from PRMT5 (unknown origin) at 10 uM using peptide substrate preincubated for 15 mins followed by substrate addition for 60 mins by radioactive biochemical assay relative to control
# [19] = Cmax in Sprague-Dawley rat at 10 mg/kg, po measured for 0.25 to 24 hrs by LC-MS/MS analysis; type: ADME, organism-based; set-up: time lower 0.25 hrs, dose 10 mg/kg, time upper 24 hrs, route po; settings: in vivo
# [20] = AUC (0 to infinity) in Sprague-Dawley rat at 10 mg/kg, po measured for 0.25 to 24 hrs by LC-MS/MS analysis; type: ADME, organism-based; set-up: dose 10 mg/kg, time upper 24 hrs, time lower 0.25 hrs, route po; settings: in vivo
# [21] = Oral bioavailability in Sprague-Dawley rat at 10 mg/kg, measured for 0.25 to 24 hrs by LC-MS/MS analysis; type: ADME, organism-based; settings: in vivo, time 0.25-24 hrs
# [22] = Oral bioavailability in mouse at 10 mg/kg, measured for 0.25 to 24 hrs by LC-MS/MS analysis; type: ADME, organism-based; settings: in vivo, time 0.25-24 hrs
# [23] = Volume of distribution at steady state in mouse at 3 mg/kg, iv measured for 0.25 to 24 hrs by LC-MS/MS analysis; type: ADME, organism-based; settings: in vivo, time 0.25-24 hrs, read-out: Vdss
# [24] = Cmax in mouse at 10 mg/kg, po measured for 0.25 to 24 hrs by LC-MS/MS analysis; type: ADME, organism-based; set-up: time lower 0.25 hrs, dose 10 mg/kg, time upper 24 hrs, route po; settings: in vivo
# [25] = Half life in Sprague-Dawley rat at 10 mg/kg, po measured for 0.25 to 24 hrs by LC-MS/MS analysis; type: ADME, organism-based; settings: in vivo, time 0.25-24 hrs
# [26] = Clearance in mouse at 3 mg/kg, iv measured for 0.25 to 24 hrs by LC-MS/MS analysis; type: ADME, organism-based; settings: in vivo, time 0.25-24 hrs
# [27] = AUC (0 to infinity) in mouse at 3 mg/kg, iv measured for 0.25 to 24 hrs by LC-MS/MS analysis; type: ADME, organism-based; set-up: time upper 24 hrs, time lower 0.25 hrs, dose 3 mg/kg, route iv; settings: in vivo
# [28] = Half life in mouse at 3 mg/kg, iv measured for 0.25 to 24 hrs by LC-MS/MS analysis; type: ADME, organism-based; settings: in vivo, time 0.25-24 hrs
SMILES,IC50 [1] [nM],IC50 [3] [µM],further results
C1=C(c2ncnc3[nH]c(-c4ccc(OCc5ccccc5)cc4)nc23)CCNC1,14.2,,half-life [2]: 2.09 min
CN1CCN(c2ncnc3[nH]c(-c4ccc(OCc5ccccc5)cc4)cc23)CC1,27.5,,
C[C@H](Oc1ccc(-c2cc3c(C4=CCNCC4)ncnc3[nH]2)cc1F)c1ccccc1,23.9,3.5,half-life [2]: 56.2 min
c1ccc(COc2ccc(-c3cc4c(NC5CCNCC5)ncnc4[nH]3)cc2)cc1,22.3,,
C[C@H](Oc1ccc(-c2cc3c(C4=CCNCC4)ncnc3[nH]2)cc1)c1ccccc1,,,Activity [4]: Dde; inhibition [5]: Dde; Activity [6]: Active; Activity [7]: Active; Activity [8]: Active; Activity [9]: Dde; Activity [10]: Dde; Activity [11]: Dde; Activity [12]: Active; Activity [13]: Dde; Activity [14]: Active; Activity [15]: Dde; Activity [16]: Dde; Activity [17]: Dde
CN(C)CCN(C)c1ncnc2[nH]c(-c3ccc(OCc4ccccc4)cc3)cc12,17.3,,
C[C@@H](Oc1ccc(-c2nc3c(C4=CCNCC4)ncnc3[nH]2)c(F)c1)c1ccccc1,157,8.69,
Nc1ncnc2[nH]c(-c3ccc(OCc4ccccc4)cc3)cc12,83.9,,inhibition [18]: 81.9%
O=C(NC[C@H](O)CN1CCc2ccccc2C1)c1cc(NC2COC2)ncn1,,,inhibition [5]: Dde
CC(Oc1ccc(-c2cc3c(C4=CCNCC4)ncnc3[nH]2)c(F)c1)c1ccccc1 (racemic),30.4,4.62,
Nc1ncnc2c1ccn2Cc1cccc(Oc2ccccc2)c1,,,inhibition [18]: 15.5%
Nc1ncnc2[nH]c(-c3ccc(OCc4ccccc4)cc3)nc12,59.4,,inhibition [18]: 84.4%
CC(Oc1ccc(-c2nc3c(C4=CCNCC4)ncnc3[nH]2)cc1)c1ccccc1 (racemic),37.1,7.17,
CC(Oc1ccc(-c2nc3c(C4=CCNCC4)ncnc3[nH]2)c(F)c1)c1ccccc1 (racemic),234,7.5,
C[C@H](Oc1ccc(-c2nc3c(C4=CCNCC4)ncnc3[nH]2)c(F)c1)c1ccccc1,79.6,5.42,half-life [2]: 41.3 min
Cc1cc(-c2cc3c(C4=CCNCC4)ncnc3[nH]2)ccc1O[C@@H](C)c1ccccc1,80.9,8.26,half-life [2]: 56.8 min
C1=C(c2ncnc3[nH]c(-c4ccc(OCc5ccccc5)cc4)cc23)CCNC1,8,,half-life [2]: 2.99 min

SMILES,IC50 [1] [nM],IC50 [3] [µM],further results
Nc1ncnc2c1ccn2Cc1ccccc1,,,inhibition [18]: 18.1%
c1ccc(COc2ccc(-c3cc4c(N5CCCNCC5)ncnc4[nH]3)cc2)cc1,10.4,,
Nc1ncnc2c1ccn2Cc1ccc(Oc2ccccc2)cc1,,,inhibition [18]: 14.1%
Nc1ncnc2c1ncn2Cc1ccccc1,,,inhibition [18]: 15.6%
C[C@H](Oc1ccc(-c2nc3c(C4=CCNCC4)ncnc3[nH]2)cc1)c1ccccc1,34.5,5.96,half-life [2]: 70.1 min
C[C@H](Oc1ccc(-c2cc3c(C4=CCNCC4)ncnc3[nH]2)cc1)c1ccccc1.Cl,,,Cmax [19]: 27.7 ng/mL; AUC [20]: 205 h/ng/mL; bioavailability [21]: 23.7%; bioavailability [22]: 46.2%; Vd [23]: 47.7 L/kg; Cmax [24]: 128 ng/mL; half-life [25]: 177 min; clearance [26]: 153 mL/min/kg; AUC [27]: 464 h/ng/mL; half-life [28]: 283 min
Cc1cc(O[C@@H](C)c2ccccc2)ccc1-c1cc2c(C3=CCNCC3)ncnc2[nH]1,32.8,3.39,half-life [2]: 47.3 min
C[C@@H](Oc1ccc(-c2cc3c(C4=CCNCC4)ncnc3[nH]2)cc1)c1ccccc1,47.7,2.57,half-life [2]: 18.3 min
c1ccc(COc2ccc(-c3cc4c(N5CCNCC5)ncnc4[nH]3)cc2)cc1,11.4,,
C[C@H](Oc1ccc(-c2cc3c(C4=CCNCC4)ncnc3[nH]2)c(F)c1)c1ccccc1,22.1,1.75,half-life [2]: 42.3 min
C[C@@H](Oc1ccc(-c2nc3c(C4=CCNCC4)ncnc3[nH]2)cc1)c1ccccc1,114,7.58,
Nc1ncnc2c1ccn2-c1ccc(OCc2ccccc2)cc1,,,inhibition [18]: 10.5%
CC(Oc1ccc(-c2cc3c(C4=CCNCC4)ncnc3[nH]2)cc1)c1ccccc1 (racemic),43.5,2.48,half-life [2]: 26 min
Nc1ncnc2c1ncn2-c1ccc(OCc2ccccc2)cc1,,,inhibition [18]: 20.2%
COc1cc(O[C@@H](C)c2ccccc2)ccc1-c1cc2c(C3=CCNCC3)ncnc2[nH]1,193,7.92,
C[C@@H](Oc1ccc(-c2cc3c(C4=CCNCC4)ncnc3[nH]2)c(F)c1)c1ccccc1,103,6.49,
CCN1CCN(c2ncnc3[nH]c(-c4ccc(OCc5ccccc5)cc4)cc23)CC1,71.3,,

# The next lines start with results.
IC50 [1] [nM],SMILES,IC50 [3] [µM],further results
16.7,CN1CCCN(c2ncnc3[nH]c(-c4ccc(OCc5ccccc5)cc4)cc23)CC1,,
44.7,c1ccc(COc2ccc(-c3nc4c(N5CCOCC5)ncnc4[nH]3)cc2)cc1,,
40,c1ccc(COc2ccc(-c3cc4c(N5CCN(C6COC6)CC5)ncnc4[nH]3)cc2)cc1,,
21.7,C[C@@H]1CN(c2ncnc3[nH]c(-c4ccc(OCc5ccccc5)cc4)cc23)C[C@H](C)N1,,
119,Cn1cc(-c2ncnc3[nH]c(-c4ccc(OCc5ccccc5)cc4)cc23)cn1,,
55,c1ccc(COc2ccc(-c3cc4c(N5CCOCC5)ncnc4[nH]3)cc2)cc1,,
88.8,CC1(O)CCN(c2ncnc3[nH]c(-c4ccc(OCc5ccccc5)cc4)cc23)CC1,,
11.5,c1ccc(COc2ccc(-c3nc4c(N5CCNCC5)ncnc4[nH]3)cc2)cc1,,
50.8,O=C1CN(c2ncnc3[nH]c(-c4ccc(OCc5ccccc5)cc4)cc23)CCN1,,
51,c1ccc(COc2ccc(-c3cc4c(N5CCC6(CC5)COC6)ncnc4[nH]3)cc2)cc1,,
113,c1ccc(COc2ccc(-c3cc4c(-c5cn[nH]c5)ncnc4[nH]3)cc2)cc1,,
